Test results as given in paper PMC9578396, “Intrinsic Antibacterial Activity of Xeruborbactam In Vitro: Assessing Spectrum and Mode of Action” (Antimicrobial Agents and Chemotherapy, 2022).
Several values for one entry are separate records, joined by “and”; a condition that tells them apart may be missing. Identical values can stand only once. Like-named read-outs stand apart in the source and are kept apart here.

Experiments:
Assay type in all cases: cell-based
Klebsiella pneumoniae = assay: microbe, parasite or virus in culture
Description: (§1) (i) Panels of engineered bacterial strains containing various combinations of porin and efflux mutations were used. The construction of all the strains used in the study is described in detail in references, [44], and [45]. (ii) KPC-producing clinical isolates and their derivatives that lost KPC plasmids were used also. These strains and their origins are described in the Table S2. (iii) Finally, KPC-producing clinical isolates enriched in strains with porin mutations were used. The mutations identified include various deletions, insertions, nonsense mutations, and decreased expression. Most of the isolates were obtained from JMI Laboratories or International Health Management Associates (IHMA); they were collected in the course of global surveillance studies.
(§2) Bacterial isolates were subjected to broth microdilution susceptibility testing, performed according to Clinical and Laboratory Standards Institute (CLSI) methods ([46]), using panels prepared in-house. […] Xeruborbactam was synthesized at Qpex Biopharma, San Diego, CA. Avibactam was purchased from eNovation Chemicals LLC, Bridgewater, NJ, USA; zidebactam was from MedKoo Biosciences, Inc., Morrisville, NC, and nacubactam was from Advanced ChemBlocks, Hayward, CA. Durlobactam was synthesized at Acme Bioscience, Palo Alto, CA, USA.

Escherichia coli = assay: Broth microdilution MIC (CLSI), Escherichia coli; conditions: Escherichia coli
Description: as §1, §2

Acinetobacter baumannii = assay: Broth microdilution MIC (CLSI), Acinetobacter baumannii; conditions: Acinetobacter baumannii
Description: as §1, §2

Pseudomonas aeruginosa = assay: Broth microdilution MIC (CLSI), Pseudomonas aeruginosa
Description: as §1, §2

[1] = Klebsiella pneumoniae, KPM1026a, parent, read-out: MIC
[2] = Klebsiella pneumoniae, KPM3532, TolQ::M189K
[3] = Klebsiella pneumoniae, KPM3534, TolQ::S31F
[4] = Klebsiella pneumoniae, KPM4235, TolQ::IP(183–1844)PR
[5] = Klebsiella pneumoniae, KPM4236, TolQ::TAA at aa 103
[6] = Klebsiella pneumoniae, KPM4238, TolQ::S25F
[7] = Klebsiella pneumoniae, KPM4239, TolQ::S28F
[8] = Klebsiella pneumoniae, KPM4240, TolQ::S25Y
[9] = Klebsiella pneumoniae, strain KPM1026a, wild type, read-out: MIC
[10] = Klebsiella pneumoniae, strain KPM1027, ramR, read-out: MIC
[11] = Klebsiella pneumoniae, strain KPM1171, ramR ompK36_1171, read-out: MIC
[12] = Klebsiella pneumoniae, strain KPM2040, ompK36_2040, read-out: MIC
[13] = Klebsiella pneumoniae, strain KPM2600, ΔompK35
[14] = Klebsiella pneumoniae, strain KPM2613, ΔompK35 ompK36_2040
[15] = Klebsiella pneumoniae, strain KPM2696, ΔacrB
[16] = strain ECM5497, wild type, read-out: MIC
[17] = strain ECM6502, marR (AcrAB overexpression)
[18] = strain AB1007, wild type, read-out: MIC
[19] = strain ACM1015, ΔadeIJK ΔadeABC
[20] = strain ACM1027, adeN (AdeIJK overexpression)
[21] = strain ACM1030, adeS (AdeABC overexpression)
[22] = Pseudomonas aeruginosa, strain PAM1020, wild type, read-out: MIC
[23] = Pseudomonas aeruginosa, strain PAM1032, nalB (MexAB-OprM overexpression)
[24] = Pseudomonas aeruginosa, strain PAM1033, nfxB (MexCD-OprJ overexpression)
[25] = Pseudomonas aeruginosa, strain PAM1034, nfxC (MexEF-OprN overexpression)
[26] = Pseudomonas aeruginosa, strain PAM1106, mexA::Tet
[27] = Pseudomonas aeruginosa, strain PAM1154, oprM::Hg
[28] = KPM3532 (TolQ::M189K), with xeruborbactam at 4 μg/mL
[29] = KPM3532 (TolQ::M189K), with xeruborbactam at 8 μg/mL
[30] = KPM3534 (TolQ::S31F), with xeruborbactam at 4 μg/mL
[31] = KPM3534 (TolQ::S31F), with xeruborbactam at 8 μg/mL
[32] = Klebsiella pneumoniae, KPM3532 (TolQ::M189K), alone
[33] = Klebsiella pneumoniae, KPM3534 (TolQ::S31F), alone
[34] = AB1007 (no beta-lactamase), xeruborbactam 0 µg/ml, read-out: MIC
[35] = AB1007, xeruborbactam 2 µg/ml, read-out: MIC
[36] = AB1007, xeruborbactam 4 µg/ml, read-out: MIC
[37] = AB1007, xeruborbactam 8 µg/ml, read-out: MIC
[38] = PAM1154 (oprM::Hg), xeruborbactam 0 µg/ml

NC(=O)[C@@H]1CC[C@@H]2CN1C(=O)N2OS(=O)(=O)O [Avibactam]
MIC (Klebsiella pneumoniae; [1]): 16 mg/L
MIC (Klebsiella pneumoniae; [2]): > 64 mg/L
MIC (Klebsiella pneumoniae; [3]): > 64 mg/L
MIC (Klebsiella pneumoniae; [4]): > 64 mg/L
MIC (Klebsiella pneumoniae; [5]): > 64 mg/L
MIC (Klebsiella pneumoniae; [6]): > 64 mg/L
MIC (Klebsiella pneumoniae; [7]): > 64 mg/L
MIC (Klebsiella pneumoniae; [8]): > 64 mg/L
MIC (Klebsiella pneumoniae; [9]): 16 mg/L
MIC (Klebsiella pneumoniae; [10]): 16 mg/L
MIC (Klebsiella pneumoniae; [11]): > 256 mg/L
MIC (Klebsiella pneumoniae; [12]): 256 mg/L
MIC (Klebsiella pneumoniae; [13]): 16 mg/L
MIC (Klebsiella pneumoniae; [14]): 256 mg/L
MIC (Klebsiella pneumoniae; [15]): 16 mg/L
MIC (Escherichia coli; [16]): 16 mg/L
MIC (Escherichia coli; strain ECM6001, ΔacrB): 16 mg/L
MIC (Escherichia coli; [17]): 8 mg/L
MIC (Acinetobacter baumannii; [18]): > 256 mg/L
MIC (Acinetobacter baumannii; strain ACM1013, ΔadeIJK): > 256 mg/L
MIC (Acinetobacter baumannii; strain ACM1014, ΔadeABC): > 256 mg/L
MIC (Acinetobacter baumannii; [19]): > 256 mg/L
MIC (Acinetobacter baumannii; [20]): > 256 mg/L
MIC (Acinetobacter baumannii; [21]): > 256 mg/L
MIC (Pseudomonas aeruginosa; Pseudomonas aeruginosa, after inactivation of MexAB-OprM, read-out: MIC): 128 mg/L
MIC (Pseudomonas aeruginosa; Pseudomonas aeruginosa, before inactivation of MexAB-OprM (wild type), read-out: MIC): > 256 mg/L
MIC (Pseudomonas aeruginosa; [22]): > 256 mg/L
MIC (Pseudomonas aeruginosa; [23]): > 256 mg/L
MIC (Pseudomonas aeruginosa; [24]): 32 mg/L
MIC (Pseudomonas aeruginosa; [25]): > 256 mg/L
MIC (Pseudomonas aeruginosa; [26]): 128 mg/L
MIC (Pseudomonas aeruginosa; [27]): 128 mg/L

CO/N=C(\C(=O)N[C@@H]1C(=O)N2C(C(=O)[O-])=C(C[N+]3(C)CCCC3)CS[C@H]12)c1csc(N)n1 [Cefepime]
fold below the MIC that corresponds to complete inhibition of KPC (Klebsiella pneumoniae; KP1074, in the presence of 8 μg/mL xeruborbactam): 2- to 8 fold
MIC (Klebsiella pneumoniae; KP1074, with xeruborbactam 2 µg/ml): 0.5 mg/L
MIC (Klebsiella pneumoniae; KP1074, with xeruborbactam 4 µg/ml): 0.25 mg/L
MIC (Klebsiella pneumoniae; KP1074, with xeruborbactam 8 µg/ml): 0.125 mg/L
MIC (Klebsiella pneumoniae; KPM1026a (no beta-lactamase), xeruborbactam 0 µg/ml): 0.03 mg/L
fold decrease compared to MIC of antibiotic alone (Klebsiella pneumoniae; KPM1026a, with xeruborbactam at 4 μg/mL): 2 fold
fold decrease compared to MIC of antibiotic alone (Klebsiella pneumoniae; KPM1026a, with xeruborbactam at 8 μg/mL): 16 fold
MIC (Klebsiella pneumoniae; KPM1026a, xeruborbactam 2 µg/ml): 0.015 mg/L
MIC (Klebsiella pneumoniae; KPM1026a, xeruborbactam 4 µg/ml): 0.015 mg/L
MIC (Klebsiella pneumoniae; KPM1026a, xeruborbactam 8 µg/ml): 0.002 mg/L
fold decrease compared to MIC of antibiotic alone (Klebsiella pneumoniae; [28]): 2 fold
fold decrease compared to MIC of antibiotic alone (Klebsiella pneumoniae; [29]): 4 fold
fold decrease compared to MIC of antibiotic alone (Klebsiella pneumoniae; [30]): 4 fold
fold decrease compared to MIC of antibiotic alone (Klebsiella pneumoniae; [31]): 8 fold
MIC (Klebsiella pneumoniae; Klebsiella pneumoniae, BAA2814, KPC-3-producing KP1074 (BAA-2814), xeruborbactam none, read-out: MIC): 256 mg/L
MIC (Klebsiella pneumoniae; Klebsiella pneumoniae, KPM1026a, alone, read-out: MIC): 0.03 mg/L
MIC (Klebsiella pneumoniae; [1]): 0.03 mg/L
MIC (Klebsiella pneumoniae; Klebsiella pneumoniae, KPM1211 (KP1074 after loss of pKpQIL), read-out: MIC): 0.5 mg/L
MIC (Klebsiella pneumoniae; Klebsiella pneumoniae, KPM1271 (KPM1026a/KPC-3), alone, read-out: MIC): 4 mg/L
MIC (Klebsiella pneumoniae; Klebsiella pneumoniae, KPM1281 (KPM1026a/NDM-1), alone, read-out: MIC): 16 mg/L
MIC (Klebsiella pneumoniae; [32]): 0.06 mg/L
MIC (Klebsiella pneumoniae; [2]): 0.06 mg/L
MIC (Klebsiella pneumoniae; [33]): 0.125 mg/L
MIC (Klebsiella pneumoniae; [3]): 0.125 mg/L
MIC (Klebsiella pneumoniae; Klebsiella pneumoniae, KPM4127 (KPM3532 TolQ::M189K/KPC-3), alone): 8 mg/L
MIC (Klebsiella pneumoniae; Klebsiella pneumoniae, KPM4128 (KPM3534 TolQ::S31F/KPC-3), alone): 32 mg/L
MIC (Klebsiella pneumoniae; Klebsiella pneumoniae, KPM4129 (KPM3532 TolQ::M189K/NDM-1), alone): 8 mg/L
MIC (Klebsiella pneumoniae; Klebsiella pneumoniae, KPM4130 (KPM3534 TolQ::S31F/NDM-1), alone): 32 mg/L
MIC (Klebsiella pneumoniae; [4]): 0.125 mg/L
MIC (Klebsiella pneumoniae; [5]): 0.125 mg/L
MIC (Klebsiella pneumoniae; [6]): 0.125 mg/L
MIC (Klebsiella pneumoniae; [7]): 0.125 mg/L
MIC (Klebsiella pneumoniae; [8]): 0.125 mg/L
MIC (Klebsiella pneumoniae; [9]): 0.03 mg/L
MIC (Klebsiella pneumoniae; [10]): 0.25 mg/L
MIC (Klebsiella pneumoniae; [11]): 2 mg/L
MIC (Klebsiella pneumoniae; [12]): 0.125 mg/L
MIC (Klebsiella pneumoniae; [13]): 0.25 mg/L
MIC (Klebsiella pneumoniae; [14]): 0.25 mg/L
MIC (Klebsiella pneumoniae; [15]): 0.03 mg/L
MIC (Escherichia coli; [16]): 0.03 mg/L
MIC (Escherichia coli; strain ECM6001, ΔacrB): 0.03 mg/L
MIC (Escherichia coli; [17]): 0.125 mg/L
MIC (Acinetobacter baumannii; [34]): 2 mg/L
MIC (Acinetobacter baumannii; [35]): 2 mg/L
MIC (Acinetobacter baumannii; [36]): 1 mg/L
MIC (Acinetobacter baumannii; [37]): 0.25 mg/L
MIC (Acinetobacter baumannii; [18]): 4 mg/L
MIC (Acinetobacter baumannii; strain ACM1013, ΔadeIJK): 4 mg/L
MIC (Acinetobacter baumannii; strain ACM1014, ΔadeABC): 1 mg/L
MIC (Acinetobacter baumannii; [19]): 0.25 mg/L
MIC (Acinetobacter baumannii; [20]): 8 mg/L
MIC (Acinetobacter baumannii; [21]): 32 mg/L
MIC (Pseudomonas aeruginosa; [38]): 0.5 mg/L
MIC (Pseudomonas aeruginosa; PAM1154, xeruborbactam 2 µg/ml): 0.125 mg/L
MIC (Pseudomonas aeruginosa; PAM1154, xeruborbactam 4 µg/ml): 0.125 mg/L
MIC (Pseudomonas aeruginosa; PAM1154, xeruborbactam 8 µg/ml): 0.06 mg/L
MIC (Pseudomonas aeruginosa; [22]): 0.5 mg/L
MIC (Pseudomonas aeruginosa; [23]): 4 mg/L
MIC (Pseudomonas aeruginosa; [24]): 4 mg/L
MIC (Pseudomonas aeruginosa; [25]): 0.5 mg/L
MIC (Pseudomonas aeruginosa; [26]): 0.25 mg/L
MIC (Pseudomonas aeruginosa; [27]): 0.125 mg/L

CC(C)(O/N=C(\C(=O)N[C@@H]1C(=O)N2C(C(=O)[O-])=C(C[n+]3ccccc3)CS[C@H]12)c1csc(N)n1)C(=O)O [Ceftazidime]
MIC (Klebsiella pneumoniae; Klebsiella pneumoniae, BAA2814): 512 mg/L
MIC (Pseudomonas aeruginosa; [38]): 1 mg/L
MIC (Pseudomonas aeruginosa; PAM1154, xeruborbactam 2 µg/ml): 0.25 mg/L
MIC (Pseudomonas aeruginosa; PAM1154, xeruborbactam 4 µg/ml): 0.25 mg/L
MIC (Pseudomonas aeruginosa; PAM1154, xeruborbactam 8 µg/ml): 0.25 mg/L

Nc1nc(/C(=C/CC(=O)O)C(=O)N[C@@H]2C(=O)N3C(C(=O)O)=CCS[C@H]23)cs1 [Ceftibuten]
fold decrease compared to MIC of antibiotic alone (Klebsiella pneumoniae): 0.015 (4) fold and 0.008 (8) fold
fold decrease compared to MIC of antibiotic alone (Klebsiella pneumoniae; [28]): 2 fold
fold decrease compared to MIC of antibiotic alone (Klebsiella pneumoniae; [29]): 2 fold
fold decrease compared to MIC of antibiotic alone (Klebsiella pneumoniae; [30]): 2 fold
fold decrease compared to MIC of antibiotic alone (Klebsiella pneumoniae; [31]): 4 fold
MIC (Klebsiella pneumoniae; Klebsiella pneumoniae): 0.06 mg/L
MIC (Klebsiella pneumoniae; [32]): 0.125 mg/L
MIC (Klebsiella pneumoniae; [33]): 0.125 mg/L

C[C@@H](O)[C@H]1C(=O)N2C(C(=O)O)=C(SCCN=CN)C[C@H]12 [Imipenem]
MIC (Acinetobacter baumannii; [34]): 0.125 mg/L
MIC (Acinetobacter baumannii; [35]): 0.125 mg/L
MIC (Acinetobacter baumannii; [36]): 0.03 mg/L
MIC (Acinetobacter baumannii; [37]): 0.015 mg/L
MIC (Pseudomonas aeruginosa; [38]): 1 mg/L
MIC (Pseudomonas aeruginosa; PAM1154, xeruborbactam 2 µg/ml): 0.5 mg/L
MIC (Pseudomonas aeruginosa; PAM1154, xeruborbactam 4 µg/ml): 0.25 mg/L
MIC (Pseudomonas aeruginosa; PAM1154, xeruborbactam 8 µg/ml): 0.125 mg/L
